“And” between values parts separate entries of the source, which are not always exact repeats. Identical values can stand only once. Like-named read-outs stand apart in the source and are kept apart here.
Tests used:
[1] = target: T1, Halo-EGFP-NanoLuc-FKBP^F36V (H-E-N-F) fusion protein (UniProt P0A3G2+P62942+Q9GV45, A155T/A167V/A172T/A224E/A31E/A60N/A81I/C128F/C176G/D78G/E160K/E257K/F37V/F95D/H272N/I117V/K175M/K195N/K70R/L47V/L54V/L88M/L99Q/M102K/N193R/N227D/P142E/P291S/Q151K/Q38R/Q45L/S2A/S58T/T264A/V71I/Y165I/Y273L/Y87F); format: cell-based; settings: for Blank corrected (470-80) luminescence / Blank corrected Raw Data (470-80): +dox; for Blank corrected (470-80) luminescence: single well replicates; for Blank corrected (470-80): sheet S3B; for Blank corrected (470-80) / Blank corrected Raw Data (470-80): replicate wells; for Blank corrected Raw Data (470-80): PROTAC 500nM
Target sequence in this assay (Q9GV45 other isoform, or with tags, fused parts or gaps with the stated changes): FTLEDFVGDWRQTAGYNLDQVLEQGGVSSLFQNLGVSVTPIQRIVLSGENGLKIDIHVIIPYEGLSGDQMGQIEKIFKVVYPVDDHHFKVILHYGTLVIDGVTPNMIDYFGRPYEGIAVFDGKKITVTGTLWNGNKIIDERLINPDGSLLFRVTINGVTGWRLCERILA
Target sequence in this assay (P0A3G2 other isoform, or with tags, fused parts or gaps with the stated changes): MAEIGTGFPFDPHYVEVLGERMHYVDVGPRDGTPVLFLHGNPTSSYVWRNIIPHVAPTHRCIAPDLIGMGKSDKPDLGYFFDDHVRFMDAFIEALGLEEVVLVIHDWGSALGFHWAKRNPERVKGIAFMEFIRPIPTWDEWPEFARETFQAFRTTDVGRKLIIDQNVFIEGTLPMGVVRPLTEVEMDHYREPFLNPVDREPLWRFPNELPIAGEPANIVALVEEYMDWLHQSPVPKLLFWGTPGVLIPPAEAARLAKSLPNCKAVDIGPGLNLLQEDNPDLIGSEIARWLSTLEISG
Target sequence in this assay (P62942 whole entry F37V, the tested form may be a part): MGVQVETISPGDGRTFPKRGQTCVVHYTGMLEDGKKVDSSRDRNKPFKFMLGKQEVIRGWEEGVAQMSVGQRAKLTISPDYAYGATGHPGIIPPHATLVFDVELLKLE

murine MLKL-FKBP^F36V = target: T2, murine MLKL-FKBP^F36V (Homo sapiens, UniProt P62942, F37V); format: cell-based; settings: 31.2-500 nM, 5 h
T2 construct: expressed in transfected cells; host or cells: Mlkl-/- mouse dermal fibroblasts, doxycycline-inducible
T2 sequence (P62942 whole entry F37V): as the sequence (P62942 whole entry F37V, the tested form may be a part) above
Experimental: All timepoint experiments were performed as reverse timepoints in order to harvest all cells at the same time. At the indicated time points cells were lysed in NuPAGE LDS lysis buffer (Invitrogen) diluted to 1× in DISC lysis buffer (20 mM Tris-HCl pH7.5, 150 mM NaCl, 2 mM EDTA pH 8.0, 1% Triton X-100, 10% glycerol, H20)) supplemented with β-Mercaptoethanol (2%), protease and phosphatase inhibitors. Lysates were run through polypropylene columns (Pierce) to shred DNA. […] Membranes were blocked in 5% skim milk (Devondale) in TBS-T (TBS, 0.1% Tween-20) for 1 h prior to immunoblotting with primary antibodies overnight at 4 °C. Unless stated otherwise, all primary antibodies were diluted in TBS-T (TBS, 0.1% Tween-20) containing 5% BSA (Sigma A8022) and 0.04% sodium azide: HaloTag (1:1000, Promega; G9211), NanoLuc (1:500, Promega; N7000), β-actin (1:20,000, Sigma; A-1798), MLKL (1:1000, produced in-house; 3H1 clone)[39], FKBP (1:1000, R&D systems; 422513), caspase-8 (1:1000, Proteintech; 13423-1-AP), Histone H3 (1:1000, Abcam; ab10799), Cadherin (1:1000, Cell Signalling Technologies; 4068 T). Membranes were washed 3 × 5–10 min in TBS-T (TBS, 0.1% Tween-20) prior to the addition of the appropriate secondary antibodies conjugated with horseradish peroxidase (Jaxon laboratories). […]

Fibrillarin-FKBP^F36V = target: T3, Fibrillarin-FKBP^F36V (Homo sapiens, UniProt P62942, F37V); format: cell-based; settings: 500 nM, 10 h
T3 construct: endogenous in cells; host or cells: 293T, CRISPR/PITCh knock-in at the FBL locus
T3 sequence (P62942 whole entry F37V): as the sequence (P62942 whole entry F37V, the tested form may be a part) above

[2] = tested on: MLKL^−/− HT29 cells expressing MLKL-FKBP^F36V; format: cell-based; settings: for Live cells (%PI negative) after TNF+911+zVAD: MLKL-/- + MLKL FKBPF36V, independent experiments
Experimental: (§1) Cell death was assessed by flow cytometric analysis of PI exclusion. […] Cell death was assessed by flow cytometric analysis of PI exclusion. […] Cell death was assessed by flow cytometric analysis of PI exclusion. e N = 4, f N = 3 independent experiments (symbols), EB represent mean ± SD. g Western from MLKL^−/−CASP8^−/− HT29 cells stably expressing the doxycycline-inducible C-terminal fusion protein, MLKL-NanoLuc (MLKL-NLuc) and constitutively expressing the C-terminal fusion protein caspase-8-FKBP^F36V. […] Cell death was assessed using an IncuCyte and Cytotox-Red uptake. N = 3 independent experiments, one representative experiment shown, EB represent mean ± SD.

[3] = tested on: MLKL^−/− HT29 cells expressing untagged MLKL; format: cell-based; settings: for Live cells (%PI negative) after TNF+911+zVAD: independent experiments
Experimental: as §1

wild-type HT29 cells = test: Necroptosis assay (PI exclusion, flow cytometry), wild-type HT29 cells, TNF+SM+IDN; format: cell-based, human; settings: sheet S5H
Experimental: To simulate necroptosis, cells were seeded into 96-well plates ±40 ng/mL doxycycline, to induce construct expression, and treated with 100 ng/mL FLAG-TNF (recombinant human, in-house), 500 nM compound A Smac mimetic (kindly gifted by TetraLogics Pharmaceuticals) and 5 μM IDN-6556 (Cayman) or 10 uM Z-VAD-fmk (Selleckchem) overnight (16–24 h). Degrader compounds or a DMSO vehicle control were added for 5 h, as stated in the Fig. legends. Cells were detached using Trypsin-EDTA (Merck) and resuspended in cell supernatants containing 10 μg/mL propidium iodide (PI). PI exclusion analysis was performed using an LSR II flow cytometer (Becton Dickinson, NJ) with 10,000 single-cell events per sample. Flow cytometry data were analysed using WEASEL version 2.7 software (Frank Battye).
Supplementary Figure 5. […]
NC4. Data are representative of N = 3 independent experiments. f-h. HT29 cells were stimulated with DMSO (control) or 500 nM of degrader for 5 hours before the addition of TNF (100 ng/mL) + Smac mimetic (compound A; 500 nM-1 µM) + caspase inhibitor; Emricasan (IDN) (5 µM), for 24 hours. Cell death was assessed by flow cytometric analysis of PI exclusion. N = 3 replicates (symbols) is shown, EB; mean ± SD. Data are representative of N = 3 independent experiments. i. Representative flow cytometry gating strategy. Source data are provided as a Source Data file.

[4] = target: T1, Halo-EGFP-NanoLuc-FKBP^F36V (H-E-N-F) fusion protein; format: cell-based; parameters: expressed in transfected cells; host or cells: immortalized mouse dermal fibroblasts (iMDFs), ubiquitin promoter, constitutive; settings: 500 nM; for time up to which degradation was maintained, degrader removed at 5 h: 24 or 48 h after removal
Target sequence in this assay (P0A3G2 other isoform, or with tags, fused parts or gaps with the stated changes): as the sequence (P0A3G2 other isoform, or with tags, fused parts or gaps with the stated changes) above
Target sequence in this assay (Q9GV45 other isoform, or with tags, fused parts or gaps with the stated changes): as the sequence (Q9GV45 other isoform, or with tags, fused parts or gaps with the stated changes) above
Target sequence in this assay (P62942 whole entry F37V, the tested form may be a part): as the sequence (P62942 whole entry F37V, the tested form may be a part) above

Fibrillarin-Halo = target: T4, Fibrillarin-Halo (Rhodococcus rhodochrous, UniProt P0A3G2, A155T/A167V/A172T/A224E/C128F/C176G/D78G/E160K/E257K/H272N/K175M/K195N/L47V/L88M/N227D/P291S/S2A/S58T/T264A/Y273L/Y87F); format: cell-based; settings: 500 nM, 10 h
T4 construct: endogenous in cells; host or cells: 293T, CRISPR/PITCh knock-in at the FBL locus
T4 sequence (P0A3G2 other isoform, or with tags, fused parts or gaps with the stated changes): as the sequence (P0A3G2 other isoform, or with tags, fused parts or gaps with the stated changes) above

[5] = tested on: MLKL^−/− HT29 cells expressing MLKL-Halo; format: cell-based
Experimental: as §1

[6] = cited from earlier work

SMILES: CC[C@H](C(=O)N1CCCC[C@H]1C(=O)O[C@H](CCc1ccc(OC)c(OC)c1)c1ccccc1OCC(=O)NCCCCCCOc1cccc2c1C(=O)N(C1CCC(=O)NC1=O)C2=O)c1cc(OC)c(OC)c(OC)c1 (stereo partly shown) [FC1]
- Blank corrected (470-80) luminescence ([1]; 3.9nM PROTAC): 74602 and 77149 and 76062 and 81411
- Blank corrected (470-80) luminescence ([1]; 7.8nM PROTAC): 59479 and 62985 and 66400
- Blank corrected (470-80) luminescence ([1]; 31.25nM PROTAC): 36339 and 35562 and 38426
- Blank corrected (470-80) luminescence ([1]; 62.5nM PROTAC): 25282 and 26898 and 23798 and 25010
- Blank corrected (470-80) ([1]; 62.5nM): 88170.7 and 89328.7 and 91847.7 and 71716.7
- Blank corrected (470-80) luminescence ([1]; 250nM PROTAC): 11621 and 12159 and 11550
- Blank corrected (470-80) ([1]; 250nM): 43826.7 and 54015.7 and 43806.7 and 52617.7
- Blank corrected (470-80) luminescence ([1]; 500nM PROTAC, 5h): 14990 and 16286 and 14132
- Blank corrected (470-80) luminescence ([1]; 500nM PROTAC, 8h): 14691 and 12990 and 15151
- Blank corrected (470-80) luminescence ([1]; 500nM PROTAC, 24h): 19581 and 16848 and 19949 and 18475
- Blank corrected (470-80) luminescence ([1]; 500nM PROTAC): 10379 and 10950 and 11612
- Blank corrected (470-80) ([1]; 500nM): 41968.7 and 40671.7 and 43532.7 and 41295.7
- Blank corrected (470-80) luminescence ([1]; 1uM PROTAC): 13507 and 14074 and 13991 and 15263
- Blank corrected (470-80) ([1]; 1uM): 51312.7 and 60071.7 and 47699.7 and 53692.7
- Blank corrected Raw Data (470-80) ([1]; DMSO (control) co-treatment): 8854 and 8375 and 8376 and 8057
- Blank corrected Raw Data (470-80) ([1]; co-treatment with MG132 (10uM)): 80455 and 95513 and 84222 and 82486
- degradation of murine MLKL-FKBP^F36V (murine MLKL-FKBP^F36V): comparable degradation
- Dmax (densitometry) (Fibrillarin-FKBP^F36V): ~ 70%
- concentration sustaining cell survival over 24 h [2]: 62.5 nM
- Live cells (%PI negative) after TNF+911+zVAD ([2]; 31.25nM): 75.8 and 59.7 and 66 and 51.4
- Live cells (%PI negative) after TNF+911+zVAD ([2]; 62.5nM): 81.5 and 75.5 and 67.7 and 62.5
- Live cells (%PI negative) after TNF+911+zVAD ([2]; 250nM): 83.3 and 81.2 and 68.1 and 65
- Live cells (%PI negative) after TNF+911+zVAD ([2]; 500nM): 83.3 and 81.7 and 67.1 and 65
- Live cells (%PI negative) after TNF+911+zVAD ([2]; 1000nM): 81 and 84.9 and 67.9 and 54.3
- Live cells (%PI negative) after TNF+911+zVAD ([3]; MLKL-/- + MLKL, 3.9nM): 6.9 and 6.6 and 8.9 and 5.1
- Live cells (%PI negative) after TNF+911+zVAD ([3]; MLKL-/- + MLKL, 7.8nM): 6.1 and 5.8 and 8.5 and 4.8
- Live cells (%PI negative) after TNF+911+zVAD ([3]; MLKL-/- + MLKL, 31.25nM): 5.7 and 5.5 and 8.3 and 4.7
- Live cells (%PI negative) after TNF+911+zVAD ([3]; MLKL-/- + MLKL, 62.5nM): 6.6 and 6 and 9 and 4.5
- viable cells (PI exclusion) (wild-type HT29 cells; TNF+SM+IDN): 8.5 and 5.7 and 7.1
- viable cells (PI exclusion) (wild-type HT29 cells; Untreated (no death stimulus)): 77.5 and 79.3 and 78.7
- time up to which degradation was seen, degrader left in the medium ([4]; 5, 24 or 48 h): up to 48 h
- time up to which degradation was maintained, degrader removed at 5 h [4]: up to 48 h

SMILES: Cc1ncsc1-c1ccc(CNC(=O)[C@@H]2C[C@@H](O)CN2C(=O)[C@@H](NC(=O)C2(C#N)CC2)C(C)(C)C)c(OCCOCCOCCOCCCCCCCl)c1 [HV2]
- Blank corrected (470-80) luminescence ([1]; 3.9nM PROTAC): 79470 and 68951 and 78183 and 76420
- Blank corrected (470-80) luminescence ([1]; 7.8nM PROTAC): 72797 and 64329 and 67516 and 60174
- Blank corrected (470-80) luminescence ([1]; 31.25nM PROTAC): 46917 and 44939 and 48832 and 45085
- Blank corrected (470-80) luminescence ([1]; 62.5nM PROTAC): 40512 and 37700 and 38124 and 40329
- Blank corrected (470-80) luminescence ([1]; 250nM PROTAC): 30717 and 30890 and 31914 and 28801
- Blank corrected (470-80) luminescence ([1]; 500nM PROTAC, 5h): 69924 and 50626 and 73472 and 59650
- Blank corrected (470-80) luminescence ([1]; 500nM PROTAC, 8h): 70698 and 62420 and 68286 and 57616
- Blank corrected (470-80) luminescence ([1]; 500nM PROTAC, 24h): 56615 and 44142 and 53902 and 55861
- Blank corrected (470-80) luminescence ([1]; 500nM PROTAC): 27860 and 28299 and 29718 and 30521
- Blank corrected (470-80) luminescence ([1]; 1uM PROTAC): 27861 and 28948 and 28638 and 31530
- Blank corrected Raw Data (470-80) ([1]; DMSO (control) co-treatment): 30990 and 24165 and 26494 and 23014
- Blank corrected Raw Data (470-80) ([1]; co-treatment with MG132 (10uM)): 55749 and 70265 and 64908 and 78527
- Dmax (densitometry) (Fibrillarin-Halo): ~ 94.8%
- TNF+911+zVAD (PI exclusion) [5]: 75.3 and 62.1 and 72
- concentration required to maintain cell survival [5]: 125 nM
- TNF+911+zVAD (PI exclusion) ([5]; MLKL-/- + MLKL HALO, TNF+911+zVAD, degrader 3.9nM, replicate columns): 6.8 and 4 and 7.3
- TNF+911+zVAD (PI exclusion) ([5]; MLKL-/- + MLKL HALO, TNF+911+zVAD, degrader 7.8nM, replicate columns): 6.9 and 4.5 and 9.3
- TNF+911+zVAD (PI exclusion) ([5]; MLKL-/- + MLKL HALO, TNF+911+zVAD, degrader 31.25nM, replicate columns): 33 and 22.8 and 23.9
- TNF+911+zVAD (PI exclusion) ([5]; MLKL-/- + MLKL HALO, TNF+911+zVAD, degrader 62.5nM, replicate columns): 77 and 48.6 and 62.6
- TNF+911+zVAD (PI exclusion) ([5]; MLKL-/- + MLKL HALO, TNF+911+zVAD, degrader 250nM, replicate columns): 88.6 and 71.9 and 68.6
- TNF+911+zVAD (PI exclusion) ([5]; MLKL-/- + MLKL HALO, TNF+911+zVAD, degrader 500nM, replicate columns): 85.7 and 70.1 and 67.1
- TNF+911+zVAD (PI exclusion) ([5]; MLKL-/- + MLKL HALO, TNF+911+zVAD, degrader 1000nM, replicate columns): 77.8 and 71.5 and 66.8
- TNF+911+zVAD (PI exclusion) [3]: 6.7 and 3.6 and 5.5
- TNF+911+zVAD (PI exclusion) ([3]; MLKL-/- + MLKL, TNF+911+zVAD, degrader 3.9nM, replicate columns): 7.3 and 3.4 and 6.6
- TNF+911+zVAD (PI exclusion) ([3]; MLKL-/- + MLKL, TNF+911+zVAD, degrader 7.8nM, replicate columns): 7.3 and 4.5 and 5.7
- TNF+911+zVAD (PI exclusion) ([3]; MLKL-/- + MLKL, TNF+911+zVAD, degrader 31.25nM, replicate columns): 9.7 and 4.3 and 5.6
- TNF+911+zVAD (PI exclusion) ([3]; MLKL-/- + MLKL, TNF+911+zVAD, degrader 62.5nM, replicate columns): 7.8 and 3.5 and 5.8
- TNF+911+zVAD (PI exclusion) ([3]; MLKL-/- + MLKL, TNF+911+zVAD, degrader 250nM, replicate columns): 6.5 and 3.9 and 5.8
- TNF+911+zVAD (PI exclusion) ([3]; MLKL-/- + MLKL, TNF+911+zVAD, degrader 500nM, replicate columns): 8.6 and 4.3 and 7.2
- TNF+911+zVAD (PI exclusion) ([3]; MLKL-/- + MLKL, TNF+911+zVAD, degrader 1000nM, replicate columns): 8.3 and 4 and 5.4
- viable cells (PI exclusion) (wild-type HT29 cells; TNF+SM+IDN): 9.6 and 6.1 and 6.3
- viable cells (PI exclusion) (wild-type HT29 cells; Untreated (no death stimulus)): 75.8 and 75.3 and 68.5
- time up to which degradation was maintained, degrader removed at 5 h [4]: depletion not maintained

SMILES: CO[C@H]1C[C@@H]2CC[C@@H](C)[C@@](O)(O2)C(=O)C(=O)N2CCCC[C@H]2C(=O)O[C@H]([C@H](C)C[C@@H]2CC[C@@H](OCCOCc3cn(CCOCCOCCNc4cccc5c4C(=O)N(C4CCC(=O)NC4=O)C5=O)nn3)[C@H](OC)C2)CC(=O)[C@H](C)/C=C(/C)[C@@H](O)[C@@H](OC)C(=O)[C@H](C)C[C@H](C)\C=C/C=C\C=C/1C (stereo partly shown) [RC32]
- depletion of substrates in animals [6]: efficient depletion of substrates
- tolerability in animals [6]: well tolerated

From publication PMC9019100, “Development of NanoLuc-targeting protein degraders and a universal reporter system to benchmark tag-targeted degradation platforms” (Nature Communications, 2022)
